In patent US5100909A, “Acetylenic imidazoles having central nervous system activity” (The Upjohn Company, priority 1991, dated 1992):
Where “and” joins values, the source holds several entries; their conditions need not be identical. Equal values may be shown once. Read-outs that look alike come from different tables or passages of the source.

What was measured:
[1] = U.S. Pat. No. 3,925,411; cited from earlier work
CNS cholinergic receptor [2] = format: binding; details: tritiated quinuclidine benzylate; read-out: CNS Cholinergic Receptor Binding Assays Ki (nM) QNB
CNS cholinergic receptor [3] = assay: Cholinergic receptor binding assay, tritiated oxotremorine M ligand; details: read-out: CNS Cholinergic Receptor Binding Assays Ki (nM) Oxotremorine
[4] = test system: HCl-induced writhing in CF1 mice; assay: Analgesic activity, HCl writhing protection in mice; format: in vivo; details: Mus musculus, sc, 0.25 h, read-out: CNS Id (ED50 mg/kg) HCl Writh. Protect
Procedure: For determination of analgesic activity, the test compound was injected subcutaneously into a group of four CF1 mice. Thirty minutes later the mice were injected i.p. with 0.15% HCl, 10 ml./kg. Mice are then placed in plastic boxes and observed for fifteen minutes to record the number of animals failing to writhe.

[5] = test system: oxotremorine-induced body tremor in mice; assay: Oxotremorine antagonist assay (body tremor) in mice; format: in vivo; details: Mus musculus, ip, read-out: Oxot. Antagonist Tremor (ED50)
Procedure: Oxotremorine antagonist assays were performed on groups of six mice weighing 18-22 g. Each was dosed intraperitoneally with the test compound prepared in 0.25% methylcellulose and were placed in individual cages. Twenty minutes later the mice were injected subcutaneously with 0.5 mg/kg of oxotremorine dissolved in saline. Ten minutes later the mice were scored for body tremor. Doses of the compound under study began at 100 mg/kg and were decreased at a 0.5 log interval until no responders were obtained.

laboratory animals = details: by a cholinergic mechanism at extremely low doses; cited from earlier work

Row | Structure (SMILES) | half life compared with prior oxotremorine compounds [1] | Ki (CNS cholinergic receptor [2]) [nM] | Ki (CNS cholinergic receptor [3]) | ED50 [4] [mg/kg] | ED50 [5] [mg/kg] | tremors and spasticity in laboratory animals (laboratory animals)
1 | O=C1CCCN1CCC#CCN1CCCC1 [N-(5-pyrrolidino-3-pentynyl)-pyrrolidin-2-one] | increased half life |  |  |  |  | 
2 | O=C1CCCN1CC#CCN1CCCC1 [Oxotremorine, N-(4-pyrrolidino-2-butynyl)-pyrrolidin-2-one, reference compound] |  | 220 | 0.4 nM and 0.5 nM | 0.025 | 0.11 | induces tremors and spasticity in laboratory animals
